Measurements published in publication PMC3005895 (Journal of Nucleic Acids, 2010).

How the values were obtained:
RPA DBD-A/B [1] = molecular target: T1, RPA DBD-A/B (Homo sapiens, UniProt P27694); assay: Reversibility of inhibition: dialysis, then fluorescence polarization of DBD-A/B binding to F-dT12; details: preincubation 30 minutes, dialysis overnight, FP with F-dT12
T1 construct: we subcloned amino acids 181–432 of human RPA p70; inferred from pET15b vector and nickel-NTA purification) (N); made in house; host or cells: E. coli BL21(DE3)
T1 sequence (P27694 181-432): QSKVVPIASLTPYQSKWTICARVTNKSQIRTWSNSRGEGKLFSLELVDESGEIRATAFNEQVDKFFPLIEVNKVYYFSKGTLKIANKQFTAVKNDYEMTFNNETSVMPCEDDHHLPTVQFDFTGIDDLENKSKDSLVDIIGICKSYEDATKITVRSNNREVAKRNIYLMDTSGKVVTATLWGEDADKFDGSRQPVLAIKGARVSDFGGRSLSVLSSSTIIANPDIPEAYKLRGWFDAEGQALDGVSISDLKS
Method: Fluorescence polarization experiments were preformed as previously described in [23]. SMIs were diluted in H1 buffer (10 mM HEPES, pH 7.2, 1 mM DTT, 0.01% NP-40, and 100 mM NaCl), and the final DMSO concentration was kept below 1%.
(§1) To assess the reversibility of select SMIs, the indicated SMI was preincubated with RPA or the DBD-A/B construct for 30 minutes at room temperature. The resulting solution was dialyzed versus 500 mL H1 buffer at 4°C using 0.5 ml, 12,000 molecular weight cut-off dialysis cassettes (Pierce). The resulting protein was recovered and concentration determined by Bradford analysis. Analysis of DNA binding activity was performed either by EMSA or FP. In each series of experiments, there was no loss of DNA binding activity in vehicle control-treated protein.
Figure 3 Irreversible inhibition of RPA DBD-A/B-DNA-binding activity by CheSS19. (a) EMSA analysis of CheSS19 inhibition of RPA DBD-A/B. Assays were performed as described in the legend to Figure 2. […] (c) Quantification of the binding data presented in panels (a) and (b). (d) Fluorescence polarization analysis of CheSS19 inactivated RPA DBD-A/B. RPA DBD-A/B was preincubated with vehicle (1% DMSO) or CheSS19 (1 pmol in 1% DMSO) for 30 minutes at 37°C. […] The protein was recovered, and DNA-binding activity measured by FP analysis of binding to an F-dT12 substrate was performed as described in “Section 2”. […]

[2] = Cellular activity (data not shown); format: cell-based
E. coli SSB = tested on: T2, E. coli SSB; assay: E. coli SSB binding assay (EMSA); details: for effect on EcSSB binding to ssDNA (result in words): EMSA, preincubation with SMI
T2 construct: purchased Enzymatics, Beverly, MA
Method: E. coli SSB Binding Assay These EMSAs were performed similarly to those for the RPA constructs, with the following exceptions. Reactions contained 25 nM of 5′-[^32P]-labeled 3Pc3 ssDNA and 3.3 nM (assuming homotetramer formation) SSB protein (Enzymatics, Beverly, MA). Reactions (20 μL) were carried out in 20 mM HEPES, pH 7.5, 1 mM DTT, 0.01% NP-40, 100 mM NaCl and resolved by 6% native polyacrylamide gel electrophoresis at 25 mA for 2 hours. Gels were dried and quantified via phosphorimager analysis as described above.

[3] = molecular target: T3, full-length heterotrimeric RPA (Homo sapiens, UniProt P27694); parameters: method as in earlier work; details: prior observation; cited from earlier work
T3 construct: Human full-length, untagged heterotrimeric RPA (RPA) was purified as previously described; made in house
T3 sequence (P27694 whole entry): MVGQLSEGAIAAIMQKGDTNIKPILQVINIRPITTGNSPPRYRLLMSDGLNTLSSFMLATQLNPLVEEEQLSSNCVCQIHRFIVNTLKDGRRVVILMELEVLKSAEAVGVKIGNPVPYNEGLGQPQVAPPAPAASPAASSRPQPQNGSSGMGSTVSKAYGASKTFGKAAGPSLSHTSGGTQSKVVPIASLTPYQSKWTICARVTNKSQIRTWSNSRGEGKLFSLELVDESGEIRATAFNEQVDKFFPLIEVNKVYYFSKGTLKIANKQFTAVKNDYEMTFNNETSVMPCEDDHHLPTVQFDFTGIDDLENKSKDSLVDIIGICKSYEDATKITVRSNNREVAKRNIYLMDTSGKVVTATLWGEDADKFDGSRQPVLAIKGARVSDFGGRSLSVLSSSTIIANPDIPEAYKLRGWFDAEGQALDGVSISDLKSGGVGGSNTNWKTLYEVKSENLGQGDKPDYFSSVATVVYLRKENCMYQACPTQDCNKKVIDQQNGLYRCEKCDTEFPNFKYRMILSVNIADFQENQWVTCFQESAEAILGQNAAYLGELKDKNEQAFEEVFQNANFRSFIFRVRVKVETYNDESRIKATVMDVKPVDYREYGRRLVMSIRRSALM
T3 sequence (P15927 whole entry partner): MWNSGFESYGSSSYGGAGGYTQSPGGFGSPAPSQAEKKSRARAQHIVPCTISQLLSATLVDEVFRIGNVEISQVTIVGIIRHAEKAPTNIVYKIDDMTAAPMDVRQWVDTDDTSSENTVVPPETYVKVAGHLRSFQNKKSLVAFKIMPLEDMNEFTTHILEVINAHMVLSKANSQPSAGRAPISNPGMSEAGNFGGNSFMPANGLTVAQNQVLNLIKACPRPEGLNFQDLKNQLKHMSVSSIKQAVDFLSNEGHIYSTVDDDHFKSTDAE
T3 sequence (P35244 whole entry partner): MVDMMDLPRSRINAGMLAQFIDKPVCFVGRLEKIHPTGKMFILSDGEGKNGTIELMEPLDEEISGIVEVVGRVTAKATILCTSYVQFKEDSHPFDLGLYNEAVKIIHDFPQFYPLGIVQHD

RPA DBD-A/B [4] = molecular target: T1, RPA DBD-A/B; assay: EMSA of RPA DBD-A/B binding to ssDNA; details: for inhibition of DBD-A/B DNA binding (result in words): 25–200 μM inhibitor
Method: DBD-A/B The sequence encoding the RPA p70 DNA-binding domains A and B was subcloned from the hrRPA plasmid (provided by Dr. Marc Wold, University of Iowa) into the pET15b (Novagen) vector, and the protein was expressed in BL21(DE3) cells (Stratagene) as previously described in [9]. Briefly, cells were grown to an OD600 of 0.8, induced with 0.5 mM isopropyl-1-thio-β-D-galactopyranoside (IPTG) at 37°C for 2-3 hours. Small-scale DBD-A/B preparations were obtained from 1 L cultures, and, following induction, cells were harvested by centrifugation at 700 × g for 30 minutes at 4°C. The pellets were suspended in Buffer A (20 mM Tris, pH 7.5, 10% glycerol, 500 mM NaCl, 10 mM β-mercaptoethanol (BME), and 1 μg/mL phenylmethanesulfonyl fluoride (PMSF), leupeptin, and pepstatin) at 1 mL/gram of cells. The cells were lysed by sonication and insoluble material sedimented at 15,000 × g for 30 minutes at 4°C. The supernatant was then loaded onto a 10 mL phosphocellulose column, equilibrated with Buffer A, and the flow-through material collected. Imidazole was added to the flow-through to a final concentration of 5 mM, which was then loaded onto a 2 mL nickel-NTA-agarose column. The column was then washed with Buffer A containing 50 mM imidazole after which protein was eluted from the column using a gradient from 50–500 mM imidazole. Fractions were analyzed for protein content using Bradford and SDS-PAGE analysis in addition to assessment of DNA binding activity as determined by anisotropy. Fractions containing the DBD-A/B protein were pooled and dialyzed overnight in Buffer B (1 mM HEPES, pH 7.2, 10 mM dithiothreitol (DTT), 50 mM NaCl, and 1 μg/mL PMSF, pepstatin, and leupeptin) and aliquots stored at −80°C.
(§2) RPA and DBD-A/B Binding EMSAs were performed as previously described in [16] using a purine rich ssDNA substrate (3Pc3). Briefly, reactions contained 12.5 nM 5′-[^32P]-labeled 3Pc3 ssDNA and the indicated concentrations of RPA or DBD-A/B. Protein was preincubated with the indicated concentration of SMI for 30 minutes at 37°C. DNA was then added and reactions incubated for additional 5 minutes at room temperature in a final reaction volume of 40 μL. Reactions were then resolved on a 6% native polyacrylamide gel and electrophoresed at 170 volts for 1 hour. Gels were dried and quantified via phosphorimager analysis and ImageQuant software (Molecular Dynamics).

[5] = molecular target: T3, full-length heterotrimeric RPA; assay: Reversibility of inhibition: dialysis, then EMSA of full-length RPA; format: binding; details: dialysis overnight, EMSA with 34-base DNA
Method: as §2
as §1, with “In each series of experiments, there was no loss of DNA binding activity in vehicle control-treated protein.” left out
Figure 5 Irreversible inactivation of full-length heterotrimeric RPA by MCI13E. […] DNA binding activity of the resulting protein was assessed by EMSA using a 5′-[^32P]-ss 34-base DNA as described in “Section 2.” Lanes 1–4 predialysis, lanes 5 and 6 postdialysis.

[6] = molecular target: T3, full-length heterotrimeric RPA; assay: EMSA of full-length heterotrimeric RPA binding to ssDNA; details: 3Pc3 ssDNA, three independent experiments, read-out: IC50 for inhibition of full-length heterotrimeric RPA
Method: RPA Human full-length, untagged heterotrimeric RPA (RPA) was purified as previously described in [17].
as §2

[7] = molecular target: T3, full-length heterotrimeric RPA; details: highest concentration tested (100 μM); cited from earlier work
[8] = molecular target: T4, Schizosaccharomyces pombe Pot1(DBD) (Schizosaccharomyces pombe, UniProt O13988); assay: Schizosaccharomyces pombe Pot1(DBD) binding assay (EMSA); details: 15-mer ssDNA, three independent experiments, read-out: IC50 for inhibition of SpPot1(DBD) ssDNA binding
T4 construct: gift of Dr. Deborah Wuttke, University of Colorado, Boulder
T4 sequence (O13988 1-389): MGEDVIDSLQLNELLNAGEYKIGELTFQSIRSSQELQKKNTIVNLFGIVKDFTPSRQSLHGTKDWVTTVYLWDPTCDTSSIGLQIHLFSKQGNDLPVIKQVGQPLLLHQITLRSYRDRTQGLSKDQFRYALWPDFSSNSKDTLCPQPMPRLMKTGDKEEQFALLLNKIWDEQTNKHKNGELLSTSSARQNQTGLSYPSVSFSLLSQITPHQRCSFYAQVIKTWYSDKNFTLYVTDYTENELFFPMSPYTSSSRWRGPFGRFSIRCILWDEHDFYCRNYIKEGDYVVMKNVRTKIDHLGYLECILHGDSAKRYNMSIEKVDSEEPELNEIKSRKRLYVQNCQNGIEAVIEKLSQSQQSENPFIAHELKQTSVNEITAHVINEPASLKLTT
Method: Schizosaccharomyces pombe Pot1(DBD) Binding Assay EMSAs were performed as described above for EcSSB. Reactions contained 25 nM of 5′-[^32P]-labeled 15-mer ssDNA and 20 nM Pot1(DBD) protein (generously provided by Dr. Deborah Wuttke, University of Colorado, Boulder). Reactions (20 μL) were carried out in 20 mM HEPES, pH 7.5, 1 mM DTT, 0.01% NP-40, 100 mM NaCl, at room temperature, and resolved by 6% native polyacrylamide gel electrophoresis at 25 mA for 2 hours. Gels were dried and quantified via phosphorimager analysis as described above.

[9] = tested on: human lung cancer cell model; details: cited from earlier work
RPA DBD-A/B [10] = molecular target: RPA DBD-A/B (human, UniProt P27694 181-432); assay: EMSA; ~50% of DNA bound at 125 nM protein; data not shown; DNA 12.5 nM; RPA/DBD-A/B EMSA: 12.5 nM DNA, protein preincubated with inhibitor 30 min at 37 C, then DNA 5 min at room temp; FP: 20 nM DNA, inhibitor diluted in H1 buffer (1)
RPA DBD-A/B (human, UniProt P27694 181-432), sequence (P27694 181-432): as the sequence (P27694 181-432) above

Molecule: O=C1OC(=O)[C@H]2C3C=CC(CC3)[C@@H]12 [CheSS19]
- mode of inhibition of DBD-A/B after dialysis (RPA DBD-A/B [1]): irreversible
- cellular activity [2]: does not display any cellular activity
- effect on EcSSB binding to ssDNA (result in words) (E. coli SSB): unaffected
- mode of inhibition of full-length RPA [3]: irreversibly inhibited

Molecule: CC1(C)C2CCC1(C)C(OC(=O)CBr)C2 (stereo not drawn) [MCI13E]
- inhibition of DBD-A/B DNA binding (result in words) (RPA DBD-A/B [4]; EMSA): lack of inhibition
- effect on EcSSB binding to ssDNA (result in words) (E. coli SSB): unaffected
- mode of inhibition of full-length RPA after dialysis [5]: inhibition was not reversed by dialysis
- IC50 [6]: 16.1 µM

Molecule: CCOc1ccc2cc(C3CC(c4ccc(Br)cc4)=NN3C(=O)CCC(=O)O)c(Cl)nc2c1 (stereo not drawn) [TDRL-505]
- inhibition of RPA DNA binding [7]: ~90%
- IC50 [8]: 15.7 ± 1.6 µM
- IC50 (RPA DBD-A/B [4]; EMSA, 125 nM DBD-A/B, 12.5 nM DNA, TDRL-505 10–100 μM, read-out: half-maximal inhibition of DBD-A/B DNA binding activity): ~40 µM
- half-maximal inhibition of DBD-A/B relative to intact heterotrimer (RPA DBD-A/B [4]; compared with heterotrimer value of ref 12): about twice
- inhibition at 100 µM (RPA DBD-A/B [4]; highest concentration tested (100 μM), read-out: inhibition of RPA DBD-A/B DNA binding): ~90%
- decrease in EcSSB binding to ssDNA (E. coli SSB; 100 μM, highest concentration tested): ~ 20%
- effect on EcSSB binding to ssDNA (result in words) (E. coli SSB): ineffective
- synergy with etoposide [9]: synergize
- synergy with cisplatin ([9]; human lung cancer cell model): synergize

Molecule: CC1(C)C2CCC1(C)C(OC(=O)CI)C2 (stereo not drawn) [MCI13F]
- inhibition of DBD-A/B DNA binding (result in words) (RPA DBD-A/B [4]; EMSA): lack of inhibition
- effect on EcSSB binding to ssDNA (result in words) (E. coli SSB): unaffected
- IC50 [6]: 10.1 µM

Molecule: CTAGAAAGGGGGAAGAAAGGGAAGAGGCCAGAGA (ssDNA) [34-mer]
- apparent K (half saturation) (RPA DBD-A/B [10]): ~125 nM
